Assay results taken from patent publication US20120070486A1, “METHODS AND COMPOSITIONS RELATED TO PREFOLDIN AND ITS REGULATION” (priority 2007, published 2012).

How the values were obtained:
HeyA8 cell line = experiment: docetaxel IC50 in chemosensitive parental HeyA8 cell line; format: cell-based; conditions: Homo sapiens, HEY A8, one range printed for HeyA8 and SKOV3
HeyA8-MDR cell line = experiment: docetaxel IC50 in chemoresistant HeyA8-MDR cell line; format: cell-based; conditions: Homo sapiens
SKOV3 cell line = experiment: docetaxel IC50 in chemosensitive parental SKOV3 cell line; format: cell-based; conditions: Homo sapiens, SK-OV-3, one range printed for HeyA8 and SKOV3
SKOV3-TR cell line = experiment: docetaxel IC50 in chemoresistant SKOV3-TR cell line; format: cell-based; conditions: Homo sapiens, SKOV3TR
PFDN4 protein = experiment: siRNA mediated silencing of PFDN4 protein expression in SKOV3 cells (western blot); format: cell-based, human; conditions: in vitro, by 48 hours
Method: Immunoprecipitation and Western Blot Analysis: Each 10 cm plate of cells was lysed in 1 mL NP-40 lysis buffer (50 mM Hepes, pH 7.25, 150 mM NaCl, […], 50 mM NaF, 2 mM EDTA, 1 mM sodium orthovanadate, 1% NP-40), supplemented with Roche complete protease inhibitors (Roche Diagnostics, Indianapolis, Ind.). Cell lysates were cleared by centrifugation at 14000 g for 15 minutes at 4° C. Protein concentration was determined using the BCA Protein Assay (Pierce Biotechnology, Rockford, Ill.). 1 mg total protein lysate was combined with 50 μL of 20% Protein A Sepharose CL4B beads (Amersham Biosciences, Piscataway, N.J.) and 1 μg of anti-PFDN4 antibody. […]
(§1) RNA interference: PFDN4 siRNA (sense: […] (SEQ ID NO:6); antisense: […] (SEQ ID NO:7)) and AllStars Negative Control siRNA were purchased from Qiagen (Valencia, Calif.). […] Coverslips were washed twice with PBS and finally mounted in anti-fade mounting media and then visualized by fluorescence microscopy.
To determine the effect of PFDN4 downregulation in ovarian cancer in vitro, the inventors utilized RNA interference (RNAi) technology to silence PFDN4 expression in ovarian cancer cells. […] Using an RT-PCR based screen, the inventors detected a decrease in PFDN4 mRNA within 4 hours following transfection, with greater than 90% silencing observed by 24 hours following transfection (FIG. 5).

PFDN4 mRNA = experiment: RT-PCR screen of siRNA mediated gene silencing of PFDN4 in SKOV3 cells; format: cell-based, human
Method: RT-PCR: RT-PCR RNA was extracted from ovarian cancer cell lines using TRIzo10 (Invitrogen, Carlsbad, Calif.) as per manufacturer's instructions. 2 μg of total mRNA was reverse transcribed using the Superscript first strand kit (Superscript, Invitrogen, Carlsbad, Calif.), and 2 μL from each reaction was subjected to PCR using standard techniques. PFDN4 primers generated a 413 by product (PFDN4 forward: […] (SEQ ID NO:1); PFDN4 reverse: […] (SEQ ID NO:2)). GAPDH primers generated an approximately 800 by product (GAPDH forward:[…] (SEQ ID NO:3); GAPDH reverse: […] (SEQ ID NO:4)). Semi-quantitative cycling conditions were optimized to the following program: 98° C. for 2 minutes followed by 22 cycles at 95° C. for 30 seconds, 55° C. for 30 seconds and 72° C. for 60 seconds, followed by a final cycle at 72° C. for 5 minutes. PCR products were visualized by agarose gel electrophoresis.
as §1, with “Calif.). HeyA8 and SKOV3 were grown to 50% confluence prior to transfection with control or PFDN4 siRNA using Lipofectamine 2000 (Invitrogen, Valencia, Calif.) following manufacturer's instruction.” for “Calif.).”, “microscopy. […]” for “microscopy.”

[1] = test system: microtubule cytoskeleton of SKOV3 cells; experiment: indirect immunofluorescent staining for α-tubulin of the microtubule cytoskeleton after siRNA transfection; format: cell-based, human; conditions: 48 hours following transfection, fluorescent microscopy, compared to control siRNA
Method: RNA interference: PFDN4 siRNA (sense: […] (SEQ ID NO:6); antisense: […] (SEQ ID NO:7)) and AllStars Negative Control siRNA were purchased from Qiagen (Valencia, Calif.). HeyA8 and SKOV3 were grown to 50% confluence prior to transfection with control or PFDN4 siRNA using Lipofectamine 2000 (Invitrogen, Valencia, Calif.) following manufacturer's instruction. Cells were typically harvested for analysis 48-72 hours following transfection. Immunofluorescent staining HeyA8 and SKOV3 cells were grown on glass coverslips in 24-well plates for 24 hours prior to transfection with either control or PFDN4 siRNA, and cultured for an additional 48 hours. Media was then aspirated and replaced with 0.5 mL of 4% paraformaldehyde for 30 minutes. Cells were then incubated with 100 mM glycine for 5 minutes, washed once with PBS and then incubated with 0.2% TritonX-100 in PBS for 10 minutes. Coverslips were washed thrice in PBS and then blocked for 30 minutes in 10% goat serum in PBS. Coverslips were then incubated with a 1:2000 dilution of anti-α-tubulin antibodies for 1.5 hours at room temperature. Slides were washed three times with PBS and then incubated for 1 hour with Alexa 555-labelled anti-rabbit secondary antibodies. Coverslips were washed twice with PBS and finally mounted in anti-fade mounting media and then visualized by fluorescence microscopy. […]

| Molecule | IC50 (HeyA8 cell line) | IC50 (HeyA8-MDR cell line) | IC50 (SKOV3 cell line) | IC50 (SKOV3-TR cell line) | down-regulation in PFDN4 protein production (PFDN4 protein) | time to detected decrease in PFDN4 mRNA following transfection (PFDN4 mRNA) | PFDN4 mRNA silencing (PFDN4 mRNA; by 24 hours following transfection) | morphology of microtubule cytoskeleton [1] |
| --- | --- | --- | --- | --- | --- | --- | --- | --- |
| CC(=O)O[C@@]12CO[C@@H]1C[C@H](O)[C@@]1(C)C(=O)[C@H](O)C3=C(C)[C@@H](OC(=O)[C@H](O)[C@@H](NC(=O)OC(C)(C)C)c4ccccc4)C[C@@](O)([C@@H](OC(=O)c4ccccc4)[C@H]21)C3(C)C [docetaxel] | 1 to 6.2 nM | ≥ 250 nM | 1 to 6.2 nM | ≥ 250 nM |  |  |  |  |
| PFDN4 siRNA: siRNA, sense UUCAGCGAGUGUUAGCAGATT (SEQ ID NO:6), antisense UCUGCUAACACCGCUGAATT (SEQ ID NO:7), purchased from Qiagen (chemistry not given here) |  |  |  |  | detectable down-regulation | ≤ 4 h | greater than 90% | less organized (FIG. 7B) and more condensed |
